Values of other authors in patent US12508236B2, “Solid nanoparticle with inorganic coating” (Nanexa AB, priority 2013, dated 2025).
“Also recorded” adds a separate entry of the source.

Row | solubility in heptane (heptane) | Compound | water solubility
1 | low solubility | CC(=O)Nc1ccc(O)cc1 [Paracetamol, N-(4-hydroxifenyl)acetamid] | high water solubility; also recorded: very water soluble
2 | – | CCOC(=O)C1=C(C)NC(C)=C(C(=O)OC)C1c1cccc(Cl)c1Cl (racemic) [Felodipine, (RS)-3-ethyl 5-methyl 4-(2,3-dichlorophenyl)-2,6-dimethyl-1,4-dihydropyridine-3,5-dicarboxylate] | very low water solubility
